Reference: publication PMC10935252, “Synthesis and Biological Evaluation of New Dihydrofuro[3,2-b]piperidine Derivatives as Potent α-Glucosidase Inhibitors” (Molecules, 2024)

Target: α-glucosidase from yeast
Assay: α-Glucosidase inhibition assay
Assay type: biochemical, Baker’s yeast
Conditions: for IC50: substrate maltose 0.5 mM, pH 6.8, 37 °C, mean ± SD of three independent experiments, read-out: IC50 against α-glucosidase from yeast
Experimental: α-Glucosidase activity was assayed by the method reported, with minor modifications. […] The reaction mixture contained 150 μL of enzyme solution, 150 μL of inhibitor, and 150 μL of substrate (maltose). The substrate and α-glucosidase (Baker’s yeast) were purchased from Sigma-Aldrich Chemical (St. Louis, MO, USA). Both the inhibitor and the substrate were first dissolved in dimethylsulfoxide (DMSO) and then diluted with Na2HPO4/NaH2PO4 buffer for a final concentration of DMSO of 5%. The enzymatic reaction was started after incubation of the enzyme (0.04 U/mL) for 10 min in the presence of the inhibitor (five different concentrations) by the addition of the substrate (0.5 mM). The mixture was incubated at 37 °C for 60 min, and the reaction was quenched in boiling water for 10 min. The supernatant was taken to determine the content of glucose by means of the glucose oxidase method using a commercial glucose kit (Sichuan Mike Biotechnology Co., Ltd., Chengdu, China). The absorption at 505 nm was measured immediately and taken as the relative rate for the hydrolysis of the substrate. The blank control (the distilled water instead of sample and enzyme solution in the process) and the negative control (distilled water instead of sample solution in the process) were also prepared. Acarbose was used as the positive control. To calculate the inhibition rate (%), the following formula was used: (controlnegative − sample)/(controlnegative − controlblank) × 100%. The entire experiment was carried out in triplicate.

## C[C@]1(O)C[C@@H]2[C@H](O1)[C@@H](O)[C@@H](O)CN2Cc1cccc(O)c1 [Compound 27, (2R, 3aR, 6S, 7S, 7aS)-2,6,7-trihydroxy-2-methyl-4-(3-hydroxylbenzyl)-3a,7a-di-hydrofuro[3,2-b]piperidine]
  IC50: 3.7 ± 0.1 µM

## C[C@]1(O)C[C@@H]2[C@@H](O1)[C@H](O)[C@H](O)CN2Cc1ccccc1Cl [Compound 13, (2R, 3aR, 6R, 7R, 7aR)-2,6,7-trihydroxy-2-methyl-4-(2-chlorobenzyl)-3a,7a-Dihydrofuro[3,2-b]piperidine]
  IC50: 13 ± 0.5 µM

## C[C@]1(O)C[C@@H]2[C@@H](O1)[C@H](O)[C@H](O)CN2Cc1c(Cl)cc(O)cc1Cl [Compound 21, (2R, 3aR, 6R, 7R, 7aR)-2,6,7-trihydroxy-2-methyl-4-(2,6-dichloro-4-hydroxylbenzyl)-3a,7a-Dihydrofuro[3,2-b]piperidine]
  IC50: 0.91 ± 0.1 µM

## CCOc1cc(CN2C[C@@H](O)[C@@H](O)[C@@H]3O[C@@](C)(O)C[C@H]32)ccc1O [Compound 23, (2R, 3aR, 6R, 7R, 7aR)-2,6,7-trihydroxy-2-methyl-4-(4-hydroxyl-3-ethyoxylbenzyl)-3a,7a-Dihydrofuro[3,2-b]piperidine]
  IC50: 9 ± 0.6 µM

## C[C@]1(O)C[C@@H]2[C@H](O1)[C@@H](O)[C@@H](O)CN2Cc1ccccc1O [Compound 26, (2R, 3aR, 6S, 7S, 7aS)-2,6,7-trihydroxy-2-methyl-4-(2-hydroxylbenzyl)-3a,7a-di-hydrofuro[3,2-b]piperidine]
  IC50: > 20 µM

## CC(=O)C[C@H]1NC[C@@H](O)[C@@H](O)[C@@H]1O [Compound 6]
  IC50: > 20 µM

## C[C@]1(O)C[C@@H]2[C@H](O1)[C@@H](O)[C@@H](O)CN2Cc1c(Cl)cc(O)cc1Cl [Compound 32, (2R, 3aR, 6S, 7S, 7aS)-2,6,7-trihydroxy-2-methyl-4-(2,6-dichloro-4-hydroxylbenzyl)-3a,7a-Dihydrofuro[3,2-b]piperidine]
Ratio of IC50 values against α-glucosidase from yeast
  times stronger activity than the positive control acarbose: 30 times
  IC50: 0.07 ± 0.01 µM

## C[C@]1(O)C[C@@H]2[C@@H](O1)[C@H](O)[C@H](O)CN2Cc1cc(Br)c(O)c(Br)c1 [Compound 24, (2R, 3aR, 6R, 7R, 7aR)-2,6,7-trihydroxy-2-methyl-4-(3,5-dibromo-4-hydroxyl-benzyl)-3a,7a-Dihydrofuro[3,2-b]piperidine]
  IC50: 1.9 ± 0.2 µM

## C[C@]1(O)C[C@@H]2[C@@H](O1)[C@H](O)[C@H](O)CN2Cc1ccc(O)c(Cl)c1 [Compound 17, (2R, 3aR, 6R, 7R, 7aR)-2,6,7-trihydroxy-2-methyl-4-(3-chloro-4-hydroxylbenzyl)-3a,7a-Dihydrofuro[3,2-b]piperidine]
  IC50: 4.9 ± 0.2 µM

## C[C@]1(O)C[C@@H]2[C@@H](O1)[C@H](O)[C@H](O)CN2Cc1ccc(O)c(Br)c1 [Compound 18, (2R, 3aR, 6R, 7R, 7aR)-2,6,7-trihydroxy-2-methyl-4-(3-bromo-4-hydroxylbenzyl)-3a,7a-Dihydrofuro[3,2-b]piperidine]
  IC50: 5.5 ± 0.4 µM

## C[C@]1(O)C[C@@H]2[C@H](O1)[C@@H](O)[C@@H](O)CN2Cc1ccc(O)cc1 [Compound 25, (2R, 3aR, 6S, 7S, 7aS)-2,6,7-trihydroxy-2-methyl-4-(4-hydroxylbenzyl)-3a,7a-di-hydrofuro[3,2-b]piperidine]
  IC50: 8.3 ± 0.4 µM

## COc1cc(CN2C[C@@H](O)[C@@H](O)[C@@H]3O[C@@](C)(O)C[C@H]32)ccc1O [Compound 22, (2R, 3aR, 6R, 7R, 7aR)-2,6,7-trihydroxy-2-methyl-4-(4-hydroxyl-methoxylbenzyl)-3a,7a-Dihydrofuro[3,2-b]piperidine]
  IC50: 10.5 ± 0.8 µM

## C[C@]1(O)C[C@@H]2[C@H](O1)[C@@H](O)[C@@H](O)CN2Cc1ccc(O)c(Br)c1 [Compound 29, (2R, 3aR, 6S, 7S, 7aS)-2,6,7-trihydroxy-2-methyl-4-(3-bromo-4-hydroxylbenzyl)-3a,7a-Dihydrofuro[3,2-b]piperidine]
  IC50: 1.2 ± 0.1 µM

## C[C@]1(O)C[C@@H]2[C@@H](O1)[C@H](O)[C@H](O)CN2Cc1ccc(O)cc1 [Compound 14, (2R, 3aR, 6R, 7R, 7aR)-2,6,7-trihydroxy-2-methyl-4-(4-hydroxylbenzyl)-3a,7a-Dihydrofuro[3,2-b]piperidine]
  IC50: 10 ± 0.7 µM

## C[C@]1(O)C[C@@H]2[C@@H](O1)[C@H](O)[C@H](O)CN2Cc1cccc(O)c1 [Compound 16, (2R, 3aR, 6R, 7R, 7aR)-2,6,7-trihydroxy-2-methyl-4-(3-hydroxylbenzyl)-3a,7a-Dihydrofuro[3,2-b]piperidine]
  IC50: > 20 µM

## C[C@]1(O)C[C@@H]2[C@H](O1)[C@@H](O)[C@@H](O)CN2Cc1ccc(O)cc1Cl [Compound 31, (2R, 3aR, 6S, 7S, 7aS)-2,6,7-trihydroxy-2-methyl-4-(2-chloro-4-hydroxylbenzyl)-3a,7a-Dihydrofuro[3,2-b]piperidine]
  IC50: 1.8 ± 0.2 µM

## CC(=O)C[C@H]1NC[C@H](O)[C@H](O)[C@H]1O [Compound 12]
  IC50: > 20 µM

## C[C@]1(O)C[C@@H]2[C@@H](O1)[C@H](O)[C@H](O)CN2Cc1ccccc1O [Compound 15, (2R, 3aR, 6R, 7R, 7aR)-2,6,7-trihydroxy-2-methyl-4-(2-hydroxylbenzyl)-3a,7a-Dihydrofuro[3,2-b]piperidine]
  IC50: > 20 µM

## C[C@]1(O)C[C@@H]2[C@@H](O1)[C@H](O)[C@H](O)CN2Cc1ccc(O)cc1Cl [Compound 20, (2R, 3aR, 6R, 7R, 7aR)-2,6,7-trihydroxy-2-methyl-4-(2-chloro-4-hydroxylbenzyl)-3a,7a-Dihydrofuro[3,2-b]piperidine]
  IC50: 4.4 ± 0.3 µM

## C[C@]1(O)C[C@@H]2[C@H](O1)[C@@H](O)[C@@H](O)CN2Cc1ccc(O)c(F)c1 [Compound 30, (2R, 3aR, 6S, 7S, 7aS)-2,6,7-trihydroxy-2-methyl-4-(3-fluoro-4-hydroxylbenzyl)-3a,7a-Dihydrofuro[3,2-b]piperidine]
  IC50: 2.6 ± 0.3 µM

## C[C@]1(O)C[C@@H]2[C@@H](O1)[C@H](O)[C@H](O)CN2Cc1ccc(O)c(F)c1 [Compound 19, (2R, 3aR, 6R, 7R, 7aR)-2,6,7-trihydroxy-2-methyl-4-(3-fluoro-4-hydroxylbenzyl)-3a,7a-Dihydrofuro[3,2-b]piperidine]
  IC50: 5.4 ± 0.3 µM

## C[C@H]1O[C@H](O[C@H]2[C@H](O)[C@@H](O)[C@@H](O[C@H]3[C@H](O)[C@@H](O)C(O)O[C@@H]3CO)O[C@@H]2CO)[C@H](O)[C@@H](O)[C@@H]1N[C@H]1C=C(CO)[C@@H](O)[C@H](O)[C@H]1O (some centres unmarked) [Acarbose, reference compound]
  IC50: 2 ± 0.2 µM

## C[C@]1(O)C[C@@H]2[C@H](O1)[C@@H](O)[C@@H](O)CN2Cc1ccc(O)c(Cl)c1 [Compound 28, (2R, 3aR, 6S, 7S, 7aS)-2,6,7-trihydroxy-2-methyl-4-(3-chloro-4-hydroxylbenzyl)-3a,7a-Dihydrofuro[3,2-b]piperidine]
  IC50: 0.5 ± 0.1 µM

## COc1cc(CN2C[C@H](O)[C@H](O)[C@H]3O[C@@](C)(O)C[C@H]32)ccc1O [Compound 33, (2R, 3aR, 6S, 7S, 7aS)-2,6,7-trihydroxy-2-methyl-4-(4-hydroxyl-methoxylbenzyl)-3a,7a-Dihydrofuro[3,2-b]piperidine]
  IC50: > 20 µM

## CCOc1cc(CN2C[C@H](O)[C@H](O)[C@H]3O[C@@](C)(O)C[C@H]32)ccc1O [Compound 34, (2R, 3aR, 6S, 7S, 7aS)-2,6,7-trihydroxy-2-methyl-4-(4-hydroxyl-3-ethyoxylbenzyl)-3a,7a-Dihydrofuro[3,2-b]piperidine]
  IC50: > 20 µM
